{"source": "paper PMC10518255", "about": "“A first-in-class pan-lysyl oxidase inhibitor impairs stromal remodeling and enhances gemcitabine response and survival in pancreatic cancer” (Nature Cancer, 2023)", "key": {"[1]": {"assay": "Tolerability in mouse PDAC models", "type": "in vivo", "details": ">6 months", "source_text": "In our KPC mouse and human PDX in vivo models of PDAC, PXS-5505 reduces collagen deposition and tumor stiffness and improves perfusion of agents into the primary tumor site. […] These in vivo findings match the in vitro organotypic data showing reductions in local invasion. Furthermore, addition of PXS-5505 to gemcitabine treatment extends median survival in the KPC model by approximately 45% and decreases metastatic deposits within the liver compared to gemcitabine alone."}, "[2]": {"tested_on": "Lysyl oxidase family activity in ear", "assay": "Target engagement: lysyl oxidase family activity in ear after single 30 mg/kg oral dose (Fig. 2g)", "type": "in vivo, rat", "design": "Lysyl oxidase family activity in the ear: unit not given here", "details": "rats; for Lysyl oxidase family activity in the ear: single 30 mg/kg oral, individual samples, 30 mg/kg", "method": "Data are presented as mean ± s.d. Two-tailed P value determined by unpaired, nonparametric t-test with a Mann–Whitney U-test correction (comparison to PBS control). h, Lysyl oxidase family activity measured in freshly excised aorta determined by fluorometric activity assay n = 19 (PBS), 5 (4–120 h) biological independent samples. Data presented as mean ± s.d. Two-tailed P value determined by unpaired, nonparametric t-test with a Mann–Whitney U-test correction (comparison to PBS control).\nTo confirm that PXS-5505 inhibits lysyl oxidase family enzymatic activity in tissues, target engagement experiments were performed following a single oral dose (30 mg kg^−1) in rats. […] Lysyl oxidase family activity was measured in two tissues; aorta (core tissue) and ear (peripheral tissue)."}, "CD8": {"tested_on": "CD8", "assay": "Immunohistochemistry of end-point KPC tumors: T-cell infiltration", "type": "in vivo, mouse", "details": "KPC tumours at endpoint; individual replicate values (Extended Data 6I)", "method": "All tissues or matrices, including patient TMAs, were fixed in 10% buffered formalin and embedded in paraffin. The 4-μm sections of samples were deparaffinized with xylene and rehydrated in graded ethanol washes. For immunohistochemistry, Bond Dewax Solution (AR9222) was used. Antigen retrieval was performed using Bond RX H2(30) protocol: HIER 30 min ER1 (citrate pH 6) OR ER2 (EDTA pH 9) at 100 °C. Slides were quenched in BOND Polymer Refine Detection (Leica Biosystems DS9800). […] Slides were digitized on an Aperio slide scanner and representative areas per tumor acquired and analyzed by researchers blinded to the conditions of the experiment.\nExtended Data Fig. 6 PXS-5505 in combination with gemcitabine in a KPC model. a. Quantification of proliferating cells (Ki67 positive nuclear staining) in KPC tumors at end point, treated as indicated. 5 fields of view (500 μm × 500 μm) per mouse and 10 mice per cohort were scored. […] Quantification of percent coverage of αSMA positive staining in KPC tumors at end point, treated as indicated. 3 fields of view (1000 μm × 1000 μm) per mouse and 10 mice per cohort were scored. […] Quantification of percent coverage of PDGFR-ß positive staining in KPC tumors at end point, treated as indicated. 3 fields of view (1000 μm × 1000 μm) per mouse and 10 mice per cohort were scored. […] 3 fields of view (500 μm × 500 μm) per mouse and 10 mice per cohort were scored. […]"}}, "note": "Several values for one entry are separate records, joined by “and”; a condition that tells them apart may be missing. Identical values can stand only once.", "data": [{"smiles": "Cl.Cl.NC/C=C(\\F)CS(=O)(=O)c1cccc2cccnc12.O", "note": "[PXS-5505, (Z)-3-fluoro-4-(quinolin-8-ylsulfonyl)but-2-en-1-amine dihydrochloride monohydrate]", "values": [{"measurement": "adverse side effects in mouse PDAC models", "setting": "[1]", "result": "no adverse side effects"}, {"measurement": "recovery of lysyl oxidase family activity in the ear", "setting": "[2]; single 30 mg kg−1 oral, over 120 h", "result": "approximately 50%"}, {"measurement": "Lysyl oxidase family activity in the ear", "setting": "[2]; 4 h", "result": "45.365 and 48.796 and 39.3331 and 45.8641 and 44.4191"}, {"measurement": "Lysyl oxidase family activity in the ear", "setting": "[2]; 24 h", "result": "63.1181 and 58.052 and 51.7601 and 46.8877 and 41.975"}, {"measurement": "Lysyl oxidase family activity in the ear", "setting": "[2]; 48 h", "result": "53.5883 and 61.6934 and 50.7554 and 53.1219"}, {"measurement": "Lysyl oxidase family activity in the ear", "setting": "[2]; 120 h", "result": "62.7632 and 56.3978 and 53.8738 and 91.7643"}, {"measurement": "T-cell infiltration (CD8 positive staining)", "setting": "CD8", "result": "7 and 5"}]}]}
